# From US20210355104A1, “ADENOSINE RECEPTOR BINDING COMPOUNDS” (Nikang Therapeuticsm Inc., priority 2018, published 2021)
# Where “and” joins values, the source holds several entries; their conditions need not be identical. Equal values may be shown once.
# Target: Adenosine A2A receptor (Homo sapiens, UniProt P29274)
# Test: cAMP assay in 293A cells stably expressing the adenosine A2A receptor (CGS21680 stimulation, HTRF)
# Format: cell-based
# Design: expressed in transfected cells; host or cells: 293A cells (Invitrogen, Cat# R705-07) infected with A2A-expressing lentivirus (custom packaged by Biosettia), puromycin selected
# Details: 293A-A2AR cells, 0.1% BSA, 1 uM CGS; read-out: cAMP (nM) 0.1% BSA, 1 uM CGS
# Procedure: A 293A cell line (Invitrogen, Cat# R705-07) stably expressing the adenosine A2A receptor was generated in house. Briefly, 293A cells were seeded in 6-well plate and infected with A2A expressing lentivirus (custom packaged by Biosettia) and selected with puromycin (1 ug/ml). Cells survived selection were confirmed for A2A expression by RT-qPCR (RT Reagent: High-Capacity cDNA Reverse Transcription Kit, Applied Biosystems/Thermo Fisher Cat# 4368814, qPCR reagent: SYBR™ Green Master Mix, Applied Biosystems/Thermo Fisher Cat# 4309155). The cells were maintained in DMEM/F12 medium containing 10% FBS, 100 units/ml Penicillin, 100 μg/ml Streptomycin, and 1 μg/ml puromycin at 37° C., 5% CO2. 293A-A2AR cells were harvested on the day of assay and resuspended at 0.6 million cells/ml in DMEM/F12 with 0.1% BSA and 30 U/ml denosine deaminase(Roche, Cat #: 10102121001). Serial dilutions of compounds were prepared in DMEM/F12 with 0.1% BSA to a DMSO concentration of 0.6%. After 4 μl of compound dilutions were added, 4 μl suspended cells were dispensed into low-volume white 384-well plates (Greiner Bio-One). […] The assay plate was then incubated at room temperature for 30 min. 3 μl of d2 conjugated cAMP and 3 μl cryptate conjugated anti-cAMP antibody were then added. D2 conjugated cAMP and cryptate conjugated anti-cAMP antibody (Cisbio, Cat #: 62AM6PEC) were both prepared in cell lysis buffer according to the manufacturer's instruction. After 1 h incubation at room temperature, plates were read in CIARIOstar plate reader (BMG Labtech) using the HTRF detection mode.
# Chain of Adenosine A2A receptor (P29274 whole entry): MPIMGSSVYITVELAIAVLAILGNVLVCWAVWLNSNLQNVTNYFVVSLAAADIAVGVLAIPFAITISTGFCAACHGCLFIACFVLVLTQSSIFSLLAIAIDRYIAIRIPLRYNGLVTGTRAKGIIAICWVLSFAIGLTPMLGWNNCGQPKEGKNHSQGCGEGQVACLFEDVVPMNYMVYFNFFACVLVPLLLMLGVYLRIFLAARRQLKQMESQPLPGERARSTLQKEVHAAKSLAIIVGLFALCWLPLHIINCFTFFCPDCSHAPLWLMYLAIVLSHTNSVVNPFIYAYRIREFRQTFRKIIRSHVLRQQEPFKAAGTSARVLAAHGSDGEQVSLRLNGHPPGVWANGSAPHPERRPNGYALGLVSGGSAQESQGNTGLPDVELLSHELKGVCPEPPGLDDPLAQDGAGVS
row,IC50,Compound
1,> 25000 nM,"CCc1nnn(CC)c1COc1nc(N)nc(-c2cccc(C#N)c2C)c1-c1cc(C)nc(C(F)F)c1 [Example 255, 3-(2-amino-6-((1,4-diethyl-1H-1,2,3-triazol-5-yl)methoxy)-5-(2-(difluoromethyl)-6-methylpyridin-4-yl)pyrimidin-4-yl)-2-methylbenzonitrile]"
2,2910 nM,"CCc1c(COc2nc(N)nc(-c3cccc(C#N)c3C)c2-c2cc(C)nc(C(F)F)c2)nnn1CC [Example 256, 3-(2-amino-6-((1,5-diethyl-1H-1,2,3-triazol-4-yl)methoxy)-5-(2-(difluoromethyl)-6-methylpyridin-4-yl)pyrimidin-4-yl)-2-methylbenzonitrile]"
3,2390 nM,"Cc1cc(-c2c(OCc3ccn(CC(C)(C)O)n3)nc(N)nc2-c2ccc(F)cc2)cc(C(F)F)n1 [Example 258, 1-(3-(((2-amino-5-(2-(difluoromethyl)-6-methylpyridin-4-yl)-6-(4-fluorophenyl)pyrimidin-4-yl)oxy)methyl)-1H-pyrazol-1-yl)-2-methylpropan-2-ol]"
4,> 25000 nM,"Cc1cc(-c2c(OCc3cccc(N4CCC(C)(O)CC4)n3)nc(N)nc2-c2ccc(F)cc2)cc(C(F)F)n1 [Example 259, 1-(6-(((2-amino-5-(2-(difluoromethyl)-6-methylpyridin-4-yl)-6-(4-fluorophenyl)pyrimidin-4-yl)oxy)methyl)pyridin-2-yl)-4-methylpiperidin-4-ol]"
5,1360 nM,"Cc1cc(-c2c(OCc3cccc(N4CC(C)(O)C4)n3)nc(N)nc2-c2ccc(F)cc2)cc(C(F)F)n1 [Example 260, 1-(6-(((2-amino-5-(2-(difluoromethyl)-6-methylpyridin-4-yl)-6-(4-fluorophenyl)pyrimidin-4-yl)oxy)methyl)pyridin-2-yl)-3-methylazetidin-3-ol]"
6,2190 nM,"Cc1cc(-c2c(OCc3cc(C(C)(C)C#N)ccn3)nc(N)nc2-c2cccc(C#N)c2C)cc(C(F)F)n1 [Example 261, 3-(2-amino-6-((4-(2-cyanopropan-2-yl)pyridin-2-yl)methoxy)-5-(2-(difluoromethyl)-6-methylpyridin-4-yl)pyrimidin-4-yl)-2-methylbenzonitrile]"
7,> 25000 nM,"Cc1cc(-c2c(OCc3nnn[nH]3)nc(N)nc2-c2ccc(F)cc2)cc(C(F)F)n1 [Example 269, 4-((1H-tetrazol-5-yl)methoxy)-5-(2-(difluoromethyl)-6-methylpyridin-4-yl)-6-(4-fluorophenyl)pyrimidin-2-amine]"
8,88 nM and 161 nM,"Cc1cc(-c2c(OCc3cccc(C(C)O)n3)nc(N)nc2-c2ccc(F)cc2)cc(C(F)F)n1 (stereo not shown) [Example 272, 1-(6-(((2-amino-5-(2-(difluoromethyl)-6-methylpyridin-4-yl)-6-(4-fluorophenyl)pyrimidin-4-yl)oxy)methyl)pyridin-2-yl)ethan-1-ol]"
9,1660 nM,"Cc1cc(-c2c(OCc3cnccn3)nc(N)nc2-c2ccc(F)cc2)cc(C(F)F)n1 [Example 273, 5-(2-(difluoromethyl)-6-methylpyridin-4-yl)-4-(4-fluorophenyl)-6-(pyrazin-2-ylmethoxy)pyrimidin-2-amine]"
10,3210 nM,"Cc1cc(-c2c(OCc3cccc(C(=O)O)n3)nc(N)nc2-c2ccc(F)cc2)cc(C(F)F)n1 [Example 274, 6-(((2-amino-5-(2-(difluoromethyl)-6-methylpyridin-4-yl)-6-(4-fluorophenyl)pyrimidin-4-yl)oxy)methyl)picolinic acid]"
11,321 nM,"Cc1cc(-c2c(OCc3cccc(C4(C#N)CCOCC4)n3)nc(N)nc2-c2ccc(F)cc2)cc(C(F)F)n1 [Example 275, 4-(6-(((2-amino-5-(2-(difluoromethyl)-6-methylpyridin-4-yl)-6-(4-fluorophenyl)pyrimidin-4-yl)oxy)methyl)pyridin-2-yl)tetrahydro-2H-pyran-4-carbonitrile]"
12,455 nM,"Cc1cc(-c2c(OCc3ccnc(C(C)(C)C#N)c3)nc(N)nc2-c2ccc(F)cc2)cc(C(F)F)n1 [Example 277, 2-(4-(((2-amino-5-(2-(difluoromethyl)-6-methylpyridin-4-yl)-6-(4-fluorophenyl)pyrimidin-4-yl)oxy)methyl)pyridin-2-yl)-2-methylpropanenitrile]"
13,19900 nM,"Cc1cc(-c2c(OC[C@H]3CC[C@@H](C(=O)O)CC3)nc(N)nc2-c2ccc(F)cc2)cc(C(F)F)n1 [Example 278, (1,4-cis)-4-(((2-amino-5-(2-(difluoromethyl)-6-methylpyridin-4-yl)-6-(4-fluorophenyl)pyrimidin-4-yl)oxy)methyl)cyclohexane-1-carboxylic acid]"
14,> 25000 nM,"Cc1cc(-c2c(OC[C@H]3CC[C@H](C(=O)O)CC3)nc(N)nc2-c2ccc(F)cc2)cc(C(F)F)n1 [Example 279, (1,4-trans)-4-(((2-amino-5-(2-(difluoromethyl)-6-methylpyridin-4-yl)-6-(4-fluorophenyl)pyrimidin-4-yl)oxy)methyl)cyclohexane-1-carboxylic acid]"
15,5800 nM,"Cc1cc(-c2c(OCc3ccn(C)c(=O)c3)nc(N)nc2-c2ccc(F)cc2)cc(C(F)F)n1 [Example 280, 4-(((2-amino-5-(2-(difluoromethyl)-6-methylpyridin-4-yl)-6-(4-fluorophenyl)pyrimidin-4-yl)oxy)methyl)-1-methylpyridin-2(1H)-one]"
16,609 nM,"COCC(O)c1cccc(COc2nc(N)nc(-c3ccc(F)cc3)c2-c2cc(C)nc(C(F)F)c2)n1 (stereo not shown) [Example 281, 1-(6-(((2-amino-5-(2-(difluoromethyl)-6-methylpyridin-4-yl)-6-(4-fluorophenyl)pyrimidin-4-yl)oxy)methyl)pyridin-2-yl)-2-methoxyethan-1-ol]"
17,1170 nM,"Cc1cc(-c2c(OCc3cccc(N4CCCC4)n3)nc(N)nc2-c2ccc(F)cc2)cc(C(F)F)n1 [Example 283, 5-(2-(difluoromethyl)-6-methylpyridin-4-yl)-4-(4-fluorophenyl)-6-((6-(pyrrolidin-1-yl)pyridin-2-yl)methoxy)pyrimidin-2-amine]"
18,1800 nM,"Cc1cc(-c2c(OCc3ccncc3)nc(N)nc2-c2ccc(F)cc2)cc(C(F)F)n1 [Example 286, 5-(2-(difluoromethyl)-6-methylpyridin-4-yl)-4-(4-fluorophenyl)-6-(pyridin-4-ylmethoxy)pyrimidin-2-amine]"
19,835 nM,"Cc1cc(-c2c(OCc3ccnc(C(C)(C)O)c3)nc(N)nc2-c2ccc(F)cc2)cc(C(F)F)n1 [Example 287, 2-(4-(((2-amino-5-(2-(difluoromethyl)-6-methylpyridin-4-yl)-6-(4-fluorophenyl)pyrimidin-4-yl)oxy)methyl)pyridin-2-yl)propan-2-ol]"
20,2390 nM,"CCc1nn(C[C@@H](O)CO)nc1COc1nc(N)nc(-c2ccc(F)cc2)c1-c1cc(C)nc(C(F)F)c1 [Example 288, (R)-3-(4-(((2-amino-5-(2-(difluoromethyl)-6-methylpyridin-4-yl)-6-(4-fluorophenyl)pyrimidin-4-yl)oxy)methyl)-5-ethyl-2H-1,2,3-triazol-2-yl)propane-1,2-diol]"
21,2090 nM,"CCc1c(COc2nc(N)nc(-c3ccc(F)cc3)c2-c2cc(C)nc(C(F)F)c2)nnn1C[C@@H](O)CO [Example 289, (R)-3-(4-(((2-amino-5-(2-(difluoromethyl)-6-methylpyridin-4-yl)-6-(4-fluorophenyl)pyrimidin-4-yl)oxy)methyl)-5-ethyl-1H-1,2,3-triazol-1-yl)propane-1,2-diol]"
22,1310 nM,CCc1nnn(C[C@@H](O)CO)c1COc1nc(N)nc(-c2ccc(F)cc2)c1-c1cc(C)nc(C(F)F)c1 [Example 290]
